Some test systems named below: OVCAR-5 ovarian; CAKI-1 renal; DU-145 prostate; M14 melanoma; MOLT-4 leukemia; NCI-H23 lung; HOP-18 NSCLC; DMS 114 small cell lung; HOP-92 NSCLC; KM20L2 colon; XF 498 CNS; SNB-78 CNS; P388/ADR leukemia.
Common to all, as to assay: NCI tumour cell line growth inhibition, 48 h

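A five-concentration, 48-hour dose response in 96-well plates underlies each endpoint, interpolated linearly between surrounding concentrations. Here, GI50 denotes the concentration required for 50% inhibition of growth. TGI: total growth inhibition.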 Where only a bound is given, the exact number is not on record here.

In the case of `Cc1nc2[nH]ncn2c(=O)c1CCO`, the TGI in the assay on OVCAR-5 ovarian, in the assay with CAKI-1 renal, in the assay with DU-145 prostate, in the assay on M14 melanoma, in the assay on MOLT-4 leukemia and in the assay on NCI-H23 lung was greater than 10 µM in each case.
Regarding `COc1ccc(C2C3CCCC(C3=O)C(c3ccc(OC)cc3)N2N=O)cc1` (configuration not stated), the TGI was 31 µM in the assay on HOP-18 NSCLC; 47.9 µM in the assay on DMS 114 small cell lung; greater than 100 µM with OVCAR-5 ovarian; greater than 100 µM in the assay on CAKI-1 renal; greater than 100 µM with HOP-92 NSCLC; greater than 100 µM in the assay with KM20L2 colon. For the same compound, the TGI in the assay with MOLT-4 leukemia is greater than 61.6 µM; in the assay on XF 498 CNS it was 72.4 µM; in the assay with SNB-78 CNS it was greater than 100 µM; in the assay on P388/ADR leukemia, 38.3 µM; with NCI-H23 lung it was 44.5 µM.
On to `O=C(NCCNc1nccc(-c2c(-c3cccc(O)c3)nc3sccn23)n1)c1ccccc1`, for which the GI50 in the assay with OVCAR-5 ovarian was 18.3 µM; with CAKI-1 renal it was 5.92 µM; in the assay on HOP-92 NSCLC, 2.22 µM; with DU-145 prostate it was 19.7 µM; in the assay on M14 melanoma it was 0.434 µM; in the assay with MOLT-4 leukemia it was 13.5 µM. The GI50 with NCI-H23 lung was 10 µM. For the same compound, the TGI was found to be 61.8 µM in the assay on OVCAR-5 ovarian; 29.6 µM in the assay with CAKI-1 renal; 33.2 µM in the assay with HOP-92 NSCLC; 68.7 µM in the assay on DU-145 prostate; 12.3 µM in the assay on M14 melanoma; 74.2 µM with MOLT-4 leukemia. The TGI with NCI-H23 lung was 30.7 µM.
As for `COc1ccc(N2C(=O)C3c4[nH]c5ccc(F)cc5c4C4CCC(C(C)(C)C)CC4C3C2=O)cc1` (configuration not stated), the TGI with OVCAR-5 ovarian, with CAKI-1 renal, in the assay with DU-145 prostate, with M14 melanoma, in the assay on MOLT-4 leukemia and in the assay with NCI-H23 lung was greater than 10 µM in each case.
In the case of `CCOC(=O)Cc1cnc(NC(NC(=O)CC)(C(F)(F)F)C(F)(F)F)s1`, the TGI in the assay on OVCAR-5 ovarian, in the assay on DU-145 prostate, in the assay with M14 melanoma, in the assay on MOLT-4 leukemia and in the assay on NCI-H23 lung was greater than 100 µM throughout.

For the origin of these results see PubChem BioAssay (NCI).
